Tests used:
Assay in all cases: Viability curves to CDDP, resistant vs sensitive subtype
Assay type in all cases: cell-based
[1] = system: H23S/H23R lung cancer cell lines; conditions: IC50 of resistant cell line/IC50 of sensitive cell line, p<0.001
Procedure: (§1) FIG. 1. Viability curves to CDDP and CBDCA. The curves show CDDP resistance of cells (A) H23R, (B) H460R, (C) A2780R and (D) 41MR; and to CBDCA of cells (E) H23R-CBDCA and (F) A2780R-CBDCA. The data was normalized with respect to the untreated control, which was established as 100%. IC50 is the concentration that induces the death of 50% of the cell population. The resistance index (IR) is calculated as IC50 of the resistant cell line/IC50 of the sensitive cell line. P<0.001 was considered a significant change in drug sensitivity (Student's t test).
(§2) Cell Culture Lung and ovarian cancer cell lines H23, H460, H1299, H727, A2780 and OVCAR3 were purchased from the ATCC (Manassas, Va.) or ECACC (Sigma-Aldrich, Spain). All of them were maintained in RPMI supplemented with 10% exosome-depleted FBS, except for OVCAR3 which was cultured in RPMI with 20% exosome-depleted FBS. FBS was depleted of bovine exosomes by ultracentrifugation at 100,000×g for 16 h at 4° C. The CDDP-resistant variants H23R, H460R, A2780R and OVCAR3R, and the carboplatin-resistant variants H23R-CBDCA and A2780R-CBDCA were established by exposing cells to increasing doses of each platinum-based drug as described. The CDDP sensitive and resistant ovarian cancer cell lines 41M and 41MR were provided by Dr. Kelland (UK) and maintained in DMEM supplemented with 10% exosome-depleted FBS.
(§3) To determine whether cisplatin-resistant cells transmit their resistance through exosomes we used matched CDDP-sensitive/resistant lung cancer and ovarian cell lines H23S/H23R, H460S/H460R, A2780S/A2780R and 41M/41MR and, that we established previously (Ibanez de Caceres, I. et al. IGFBP-3 hypermethylation-derived deficiency mediates cisplatin resistance in non-small-cell lung cancer. Oncogene 29, 1681-1690 (2010); Vera, O. et al. DNA Methylation of miR-7 is a Mechanism Involved in Platinum Response through MAFG Overexpression in Cancer Cells. Theranostics 7, 4118-4134 (2017)). […] We then isolated exosomes from resistant subtypes H23R, H460R, 41MR and A2780R and confirmed their proper size (around 100 nm) using electron microscopy and NanoSight analysis (FIGS. 2A and B) Once we have confirmed that our samples were successfully enriched in exosomes, we wanted to assess if exosomes from cisplatin-resistant cells could alter the drug response of sensitive cells. For that purpose, firstly, we examined whether exosomes isolated from CDDP resistant subtypes were taken up by sensitive parental cells, we labelled exosomes with PKH26 and exposed them to sensitive cells. The analysis using flow cytometry confirmed the uptake of resistant exosomes in more than 77% of sensitive cells H23S, 41M and A2780S compared with PBS control (FIG. 3).

[2] = system: A2780S/A2780R ovarian cancer cell lines; conditions: IC50 of resistant cell line/IC50 of sensitive cell line, p<0.001
Procedure: as §1, §2, §3

[3] = system: H460S/H460R lung cancer cell lines; conditions: IC50 of resistant cell line/IC50 of sensitive cell line, p<0.001
Procedure: as §1, §2, §3

[4] = system: 41M/41MR ovarian cancer cell lines; conditions: IC50 of resistant cell line/IC50 of sensitive cell line; 41MR vs 41M; p<0.001
Procedure: as §1, §2, §3

For `N.N.[Cl][Pt][Cl]` [cisplatin], the “Resistant-Index (RI)” value [1] was 2.77, the “Resistant-Index (RI)” value [2] was 2.11 and the “Resistant-Index (RI)” value [3] was 2.49. The “Resistant-Index (RI)” value [4] was 4.26.

From US20220267857A1, “METHOD FOR DETERMINING THE RESPONSE TO TREATMENT OF A PATIENT AFFECTED BY NON-SMALL CELL LUNG CARCINOMA (NSCLC)” (FUNDACIÓN PARA LA INVESTIGACIÓN BIOMÉDIKCA DEL HOSPITAL …, priority 2019, published 2022)
